This is an account of results in patent publication US20030114362A1, “Penta-or tetrapeptide binding to somatostatin receptors and the use of the same” (Novaspin Biotech GmbH, priority 2001, published 2003).

Assay [1] deals with A431 (an epidermoid cancer). The following applies: A431, MB and MTT assays. Background: Tetrazolium dyes change colour on reduction, which living cells bring about.
Procedure: (§3) Each compound was tested under 4 conditions: 6 h (to exclude necrosis) and 48 h to see inhibition of proliferation and apoptosis.
In assay [2] the test system is Panc-1 (a well differentiated pancreatic adenocarcinoma). The following applies: Panc-1, MB and MTT assays.
Procedure: as §3
Another assay deals with A431 and Panc-1. The settings on record: number of cell deaths after 6 h of incubation. How it is done:
The Compounds shown below were tested on two cell-lines, A431 (A. T. C. C. reference No. CRL-1555, c.f. American Type Culture Collection, http://phage.atcc.org/cgi-bin/searchengine/longview.cgi?view=ce,663682,CRL-1555&text=a-431, 2001, pp. http://phage.atcc.org/cgi-bin/searchengine/longview.cgi?view-ce,663682,CRL-661555&text=a-663431; http://phage.atcc.org/cgi-bin/searchengine/longview.cgi?view=ce,663682,CRL-661555&text=a-663431) (an epidermoid cancer) and Panc-1 (A.T.C.C. reference No. CRL-1469, c.f. American Type Culture Collection, http://phage.atcc.org/cgi-bin/searchengine/longview.egi?view=ce,609764,CRL-1469&text=panc-1) (a well differentiated pancreatic adenocarcinoma), both of human origin, using the MTT (Carmichael J et al. Cancer Res. 47(4): pp. 936-42, 1987.) and MB (Oliver M H, Harrison N K, Bishop J E, Cole P J, Laurent G J; J Cell Sci 1989 March;92 ( Pt 3):513-8) assays. [drawing 25]
Each compound was tested under […]: 6 h (to exclude necrosis) and 48 h to see inhibition of proliferation and apoptosis.

The test system of assay [3] is Substance P release from sensory nerve terminals. The assay can be described thus: Release of Substance P in vitro from electrically stimulated rat tracheae (RIA). The following applies: for Substance P release, stim. / inhibition of Substance P release / Substance P release, post stim. / Substance P release, pre stim.: 500 nmol; for Substance P release, stim.: electrical field stimulation 40 V, 0.1 ms, 10 Hz, 120 s; for Substance P release, stim. / Substance P release, post stim. / Substance P release, pre stim.: released amount of peptide per tissue weight; for inhibition of Substance P release: electrically evoked release; for Substance P release, post stim.: poststimulated fraction; for Substance P release, pre stim.: prestimulated fraction; for Substance P release evoked by electrical stimulation of sensory nerve terminals (in words): compared with TT-232. How it is done: Effect of TG, SGA, TR, and TT-232 on the Release of Substance P in vitro Methods:
After exsanguination the tracheae of 2-2 female Wistar rats were removed and perfused (1 ml min^−1) in an organ bath (1.8 ml) at 37° C. for 60 min with oxygenated (95% O2 and 5% CO2) Krebs solution of the following composition (in mM): NaCl 119, NaHCO3 25, KH2PO4 1.2, MgSO4 1.5, KCl 4.7, CaCl2 2.5, glucose 11. After stopping the flow the solution was changed 3 times for 8 min (prestimulated—stimulated—poststimulated). Electrical field stimulation (40 V, 0.1 ms, 10 Hz, 120 s) was performed to induce release of sensory neuropeptides from the tissue pieces in the presence or absence of SGTG, SGA, SGTH, or TT-232 (500-500 nM). The fractions were collected in ice-cold tubes and the wet weight of the tracheae were measured. Concentration of SP was determined by specific radioimmunoassay (RIA) methods developed in our laboratory (Németh, J., Oroszi, G., Thán, M., Helyes, Zs., Pintér, E., Farkas, B. and Szolcsányi, J.: Substance P radioimmunoassay for quantitative characterization of sensory neurotransmitter release. Neurobiology, 7, 437-444, 1999) and was expressed as the released amount of peptide per tissue weight.

In assay [4] the test system is multi-drug resistant cell line Klon 2 (10×80). Put plainly: XTT/PMS cytotoxicity assay, multidrug resistant hepatoma cells. The assay is classed as cell-based, rat. The settings on record: 72 hrs incubation. An excerpt:
(§1) Rat hepatoma cells were cultivated in a F 12 medium (GibcoBRL), to which 5% of foetal calf serum had been added, in a atmosphere saturated with humidity (>95%) and having a CO2 content of 8% in air. The cell line named “Klon 2” was isolated by Venetianer et al. (Cytogentc.Cell.Genet 28:280-283, 1980). The cell line 2 (10×80)T1 is a sub-clone of Klon 2 having a moderate multi-drug resistance 8 (Pirity, Hever-Szabo and Venetianer, Cytotechnology 19:207-214, 1996). The degree of resistance of cell line 2 (10×80) was determined by a Niagara blue exclusion test, the cells being exposed to different concentrations of the following cytostatic agents for 72 hrs.
(§2) The XTT/PMS Assay (Scuderio et al., Cancer Res. 48:4827-4833, 1988; Roehm et al., J.Immun.Methods 142:257-265, 1991) was utilised to determine the cytotoxicity of the compounds. For this purpose, the viability of the sensitive cell line Klon 2 was tested in comparison with that of the multi-drug resistant cell line Klon 2 (10×80). An identical number of cells was applied to a 96 cell culture plate. […] The cell viability was determined by triple determination for each concentration by means of the XTT/PMS dye test (Scuderio et al., Cancer Res. 48:4827-4833, 1988; Roehm et al., J.Immun.Methods 142:257-265,1991). […]

For assay [5], the system named is sensitive cell line Klon 2. The assay can be described thus: XTT/PMS cytotoxicity assay, drug sensitive hepatoma cells. The settings on record: Klon 2, XTT/PMS, 72 hrs incubation. Type of assay: cell-based, rat.
From the text: as §1, §2

Starred links: 1 amine or outer side, 2 acyl side, 3 side chain; linkers in the order of their positions; H or OH if unused. Non-standard residues stand in square brackets, D forms with d. Residues, ends and D or L forms follow the SMILES beside them. ξ: configuration not given here. *: point of attachment. X3 = CC1(C)O[C@H]2O[C@H](C(=O)[*:2])[C@@H](N[*:1])[C@H]2O1; X1 = CC1(C)OC2[C@H](OC(C(O)C(=O)[*:2])[C@H]2N[*:1])O1; X2 = CC1(C)OC2[C@H](O[C@H](C(=O)[*:2])[C@H]2N[*:1])O1; Bip = N[C@@H](Cc1ccc(-c2ccccc2)cc1)C(=O)O; Trt = c1ccc(C(c2ccccc2)(c2ccccc2)*)cc1; Bta = N[C@@H](Cc1csc2ccccc12)C(=O)O; ξW = NC(Cc1c[nH]c2ccccc12)C(=O)O; Thr(3ξ) = CC(O)[C@H](N)C(=O)O; ξY = NC(Cc1ccc(O)cc1)C(=O)O; Nle = CCCC[C@H](N)C(=O)O; ξF = NC(Cc1ccccc1)C(=O)O; ξK = NCCCCC(N)C(=O)O; Bn = c1ccc(C*)cc1

By IC50 is commonly meant the concentration at which inhibition is half-maximal. With `C[C@@H](OC(c1ccccc1)(c1ccccc1)c1ccccc1)C1NC(=O)[C@H](CCCCN)NC(=O)[C@H](Cc2csc3ccccc23)NC(=O)[C@H](Cc2ccc(O)cc2)NC(=O)[C@H]2O[C@@H]3OC(C)(C)OC3[C@@H]2NC1=O` (some centres unmarked) [SGnc 8], the IC50 is 50 µM in assay [1] and 40 µM in assay [2]. In the assay on A431 and Panc-1, the Necrosis entry is “some”.

c[-D-Trp-Lys-Bpa-Z1-Phe-] [SGnc 14]: the IC50 in assay [1] and in assay [2] was about 100 µM throughout. Moreover, the Necrosis result in the assay on A431 and Panc-1 is recorded as “almost none”.

As for `CCCC[C@@H]1NC(=O)[C@@H](Cc2c[nH]c3ccccc23)NC(=O)[C@H](Cc2ccc(O)cc2)NC(=O)[C@H]2O[C@@H]3OC(C)(C)O[C@@H]3[C@@H]2NC(=O)[C@H]([C@@H](C)OC(c2ccccc2)(c2ccccc2)c2ccccc2)NC1=O` [SGnc 7, cyclo[-D-Trp-Nle-Thr(OTrt)-Z1-Tyr-]] (cyclo([Nle]T(Trt)[X3]Y[dW])), the IC50 in assay [1] and in assay [2] was 10 µM in each case. For the same compound, in the assay with A431 and Panc-1, the Necrosis entry is given as “none”.

Turning to `CC1(C)OC2[C@H](O[C@@H]3C(=O)NC(Cc4ccc(O)cc4)C(=O)N[C@@H](Cc4csc5ccccc45)C(=O)NC(CCCCN)C(=O)N[C@@H](Cc4ccc(OCc5ccccc5)cc4)C(=O)N[C@@H]23)O1` (some centres unmarked) [SGnc 51] (cyclo([Bta][ξK]Y(Bn)[X2][ξY])), the IC50 in assay [1] and in assay [2] was 35 µM throughout. The Necrosis entry with A431 and Panc-1 is “almost none”.

As to c[-D-Trp-Lys-Thr(OTrt)-Z1-Tyr-], in assay [3], the “Substance P release, stim.” value is given as 5.14; the “inhibition of Substance P release” value was found to be 19.3%; the “Substance P release, post stim.” value is listed as 2.31; the “Substance P release, pre stim.” value came to 1.76. In addition, the “Substance P release evoked by electrical stimulation of sensory nerve terminals (in words)” value in assay [3] was “inhibited”. This compound also had an IC50 in assay [4] of 25 µM. This compound also gave an IC50 in assay [5] of 31 µM.

As for `C[C@@H](OC(c1ccccc1)(c1ccccc1)c1ccccc1)C1NC(=O)[C@H](CCCCN)NC(=O)[C@H](Cc2ccc3ccccc3c2)NC(=O)[C@H](Cc2ccc(O)cc2)NC(=O)[C@H]2O[C@@H]3OC(C)(C)OC3[C@@H]2NC1=O` (some centres unmarked) [SGnc 10], the IC50 was determined as 55 µM in assay [1] and 40 µM in assay [2]. The Necrosis result with A431 and Panc-1 is “some”.

Consider `CC(OC(c1ccccc1)(c1ccccc1)c1ccccc1)[C@@H]1NC(=O)C(CCCCN)NC(=O)[C@@H](Cc2c[nH]c3ccccc23)NC(=O)C(Cc2ccccc2)NC(=O)C(O)C2O[C@@H]3OC(C)(C)OC3[C@@H]2NC1=O` (stereo partly drawn) [SGnc 18, c[-D-Trp-Lys-Thr(OTrt)-Z2-Phe-]] (cyclo([Thr(3ξ)](Trt)[X1][ξF][dW][ξK])), for which the IC50 in assay [1] and in assay [2] was about 50 µM in each case. In addition, the Necrosis result in the assay on A431 and Panc-1 is “some”.

Take `CC(OC(c1ccccc1)(c1ccccc1)c1ccccc1)[C@@H]1NC(=O)C(CCCCN)NC(=O)[C@@H](Cc2csc3ccccc23)NC(=O)C(Cc2ccc(O)cc2)NC(=O)[C@H]2O[C@@H]3OC(C)(C)OC3[C@@H]2NC1=O` (some centres unmarked) [SGnc 50]: the IC50 in assay [1] and in assay [2] was about 38 µM each time. Further, the Necrosis result with A431 and Panc-1 is on record as “none”.

c[-Tyr-Trp-Lys-Thr-Z1-]: the IC50 was found to be 47 µM in assay [4] and 75 µM in assay [5].

Turning to `CC1(C)OC2[C@H](OC3C(O)C(=O)NC(Cc4ccccc4)C(=O)N[C@H](Cc4c[nH]c5ccccc45)C(=O)NC(CCCCN)C(=O)N[C@@H](Cc4ccc(-c5ccccc5)cc4)C(=O)N[C@H]32)O1` (stereo partly drawn) [SGnc 20, cyclo[-D-Trp-Lys-Thr(OTrt)-Z2-Phe-]] (cyclo([Bip][X1][ξF][dW][ξK])), the IC50 in assay [1] and in assay [2] was about 60 µM in each case. Also, the Necrosis result in the assay on A431 and Panc-1 is “some”.

Take `CC1(C)OC2[C@H](O[C@@H]3C(=O)N[C@@H](Cc4ccccc4)C(=O)N[C@@H](Cc4c[nH]c5ccccc45)C(=O)N[C@@H](CCCCN)C(=O)N[C@@H]23)O1` (stereo partly drawn) [SGA, cyclo[-Phe-Trp-Lys-Z1-]]: in assay [3], the “Substance P release, stim.” value is listed as 4.81; the “inhibition of Substance P release” value is given as 28.4%; the “Substance P release, post stim.” value is listed as 2.07; the “Substance P release, pre stim.” value stood at 1.81. Moreover, in assay [3], the “Substance P release evoked by electrical stimulation of sensory nerve terminals (in words)” value is reported as “inhibited”.

As for `CC(OCc1ccccc1)[C@@H]1NC(=O)C(CCCCN)NC(=O)C(Cc2c[nH]c3ccccc23)NC(=O)C(Cc2ccc(O)cc2)NC(=O)[C@H]2O[C@@H]3OC(C)(C)OC3[C@@H]2NC1=O` (stereo partly drawn) [SGnc 38, cyclo[-D-Trp-Lys-Thr(OBzl)-Z1-Tyr-]] (cyclo([Thr(3ξ)](Bn)[X2][ξY][ξW][ξK])), the IC50 in assay [1] and in assay [2] was about 50 µM in each case. In addition, the Necrosis entry in the assay with A431 and Panc-1 was “some”.

Turning to c[-D-Trp-Lys-1-Nal-Z1-Phe-] [SGnc 15], the IC50 in assay [1] and in assay [2] was about 110 µM each time. For the same compound, the Necrosis entry in the assay with A431 and Panc-1 was “some”.
